Usually Ki stands for a measure of affinity in units of concentration, obtained from inhibition or displacement. Lower therefore signals tighter binding.

Among the data in patent US10213433B2 (AbbVie Inc., priority 2010, dated 2019) are Ki values, retold here.

The target in this experiment is Bcl-2 protein (Homo sapiens (Human), UniProt P10415). Kind of experiment: Bcl-2 binding TR-FRET (Time-Resolved Fluorescence-Resonance-Energy-Transfer) assay. To be noted: inhibition constant for binding to Bcl-2 protein. From the text: The smaller the Ki value, the greater is the binding affinity.
Bcl-2 protein, sequence (P10415 whole entry): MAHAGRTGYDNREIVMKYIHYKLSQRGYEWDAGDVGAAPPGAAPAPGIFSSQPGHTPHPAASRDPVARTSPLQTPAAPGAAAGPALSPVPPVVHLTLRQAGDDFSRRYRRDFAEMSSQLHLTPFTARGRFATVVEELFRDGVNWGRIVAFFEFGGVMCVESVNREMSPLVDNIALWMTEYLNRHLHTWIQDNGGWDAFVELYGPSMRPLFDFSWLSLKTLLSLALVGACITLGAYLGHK
In general terms: TR-FRET usually uses a lanthanide donor and a delayed reading to cut background.
For `CC1(C)CCC(CN2CCN(c3ccc(C(=O)NS(=O)(=O)c4ccc(NC[C@H]5CCN(C6COC6)C5)c([N+](=O)[O-])c4)c(Oc4cnc5[nH]ccc5c4)c3)CC2)=C(c2ccc(Cl)cc2)C1` [Compound 195, 4-(4-{[2-(4-chlorophenyl)-4,4-dimethylcyclohex-1-en-1-yl]methyl}piperazin-1-yl)-N-{[3-nitro-4-({[(3R)-1-oxetan-3-ylpyrrolidin-3-yl]methyl}amino)phenyl]sulfonyl}-2-(1H-pyrrolo[2,3-b]pyridin-5-yloxy)benzamide], the Ki is < 0.01 nM. With `CN(C)CCCOc1ccc(CNc2ccc(S(=O)(=O)NC(=O)c3ccc(N4CCN(CC5=C(c6ccc(Cl)cc6)CC(C)(C)CC5)CC4)cc3Oc3cnc4[nH]ccc4c3)cc2[N+](=O)[O-])cc1` [Compound 197, 4-(4-{[2-(4-chlorophenyl)-4,4-dimethylcyclohex-1-en-1-yl]methyl}piperazin-1-yl)-N-{[4-({4-[3-(dimethylamino)propoxy]benzyl}amino)-3-nitrophenyl]sulfonyl}-2-(1H-pyrrolo[2,3-b]pyridin-5-yloxy)benzamide] the figure was < 0.01 nM; with `CC1(C)CCC(CN2CCN(c3ccc(C(=O)NS(=O)(=O)c4ccc(NCc5ccc(OCCN6CCOCC6)cc5)c([N+](=O)[O-])c4)c(Oc4cnc5[nH]ccc5c4)c3)CC2)=C(c2ccc(Cl)cc2)C1` [Compound 198, 4-(4-{[2-(4-chlorophenyl)-4,4-dimethylcyclohex-1-en-1-yl]methyl}piperazin-1-yl)-N-[(4-{[4-(2-morpholin-4-ylethoxy)benzyl]amino}-3-nitrophenyl)sulfonyl]-2-(1H-pyrrolo[2,3-b]pyridin-5-yloxy)benzamide], < 0.01 nM; with `CC1(C)CCC(CN2CCN(c3ccc(C(=O)NS(=O)(=O)c4ccc(NCC56CC7CC(C5)C(O)C(C7)C6)c([N+](=O)[O-])c4)c(Oc4cnc5[nH]ccc5c4)c3)CC2)=C(c2ccc(Cl)cc2)C1` (stereo not drawn) [Compound 199, 4-(4-{[2-(4-chlorophenyl)-4,4-dimethylcyclohex-1-en-1-yl]methyl}piperazin-1-yl)-N-{[4-({[(E)-4-hydroxy-1-adamantyl]methyl}amino)-3-nitrophenyl]sulfonyl}-2-(1H-pyrrolo[2,3-b]pyridin-5-yloxy)benzamide], < 0.01 nM. The value for `CC1(C)CCC(CN2CCN(c3ccc(C(=O)NS(=O)(=O)c4ccc(NCC56CC7CC(C5)C(O)C(C7)C6)c([N+](=O)[O-])c4)c(Oc4cnc5[nH]ccc5c4)c3)CC2)=C(c2ccc(Cl)cc2)C1` (stereo not drawn) [Compound 200, 4-(4-{[2-(4-chlorophenyl)-4,4-dimethylcyclohex-1-en-1-yl]methyl}piperazin-1-yl)-N-{[4-({[(Z)-4-hydroxy-1-adamantyl]methyl}amino)-3-nitrophenyl]sulfonyl}-2-(1H-pyrrolo[2,3-b]pyridin-5-yloxy)benzamide] was < 0.01 nM. In the case of `CN1CC(Nc2ccc(S(=O)(=O)NC(=O)c3ccc(N4CCN(CC5=C(c6ccc(Cl)cc6)CC(C)(C)CC5)CC4)cc3Oc3cnc4[nH]ccc4c3)cc2[N+](=O)[O-])CC1=O` (stereo not drawn) [Compound 202, 4-(4-{[2-(4-chlorophenyl)-4,4-dimethylcyclohex-1-en-1-yl]methyl}piperazin-1-yl)-N-({4-[(1-methyl-5-oxopyrrolidin-3-yl)amino]-3-nitrophenyl}sulfonyl)-2-(1H-pyrrolo[2,3-b]pyridin-5-yloxy)benzamide], the Ki is < 0.01 nM. The value for `CC1(C)CCC(CN2CCN(c3ccc(C(=O)NS(=O)(=O)c4ccc(OCC5CCCC(=O)C5)c([N+](=O)[O-])c4)c(Oc4cnc5[nH]ccc5c4)c3)CC2)=C(c2ccc(Cl)cc2)C1` (stereo not drawn) [Compound 205, 4-(4-{[2-(4-chlorophenyl)-4,4-dimethylcyclohex-1-en-1-yl]methyl}piperazin-1-yl)-N-({3-nitro-4-[(3-oxocyclohexyl)methoxy]phenyl}sulfonyl)-2-(1H-pyrrolo[2,3-b]pyridin-5-yloxy)benzamide] was < 0.01 nM. The value for `CC1(C)CCC(CN2CCN(c3ccc(C(=O)NS(=O)(=O)c4ccc(NC[C@@H]5CCN(C6COC6)C5)c([N+](=O)[O-])c4)c(Oc4cnc5[nH]ccc5c4)c3)CC2)=C(c2ccc(Cl)cc2)C1` [Compound 209, 4-(4-{[2-(4-chlorophenyl)-4,4-dimethylcyclohex-1-en-1-yl]methyl}piperazin-1-yl)-N-{[3-nitro-4-({[(3S)-1-oxetan-3-ylpyrrolidin-3-yl]methyl}amino)phenyl]sulfonyl}-2-(1H-pyrrolo[2,3-b]pyridin-5-yloxy)benzamide] was < 0.01 nM; that for `COCCOCCN1CCOC(CNc2ccc(S(=O)(=O)NC(=O)c3ccc(N4CCN(CC5=C(c6ccc(Cl)cc6)CC(C)(C)CC5)CC4)cc3Oc3cnc4[nH]ccc4c3)cc2[N+](=O)[O-])C1` (stereo not drawn) [Compound 213, 4-(4-{[2-(4-chlorophenyl)-4,4-dimethylcyclohex-1-en-1-yl]methyl}piperazin-1-yl)-N-({4-[({4-[2-(2-methoxyethoxyl)ethyl]morpholin-2-yl}methyl)amino]-3-nitrophenyl}sulfonyl)-2-(1H-pyrrolo[2,3-b]pyridin-5-yloxy)benzamide] was < 0.01 nM. With `CC1(C)CCC(CN2CCN(c3ccc(C(=O)NS(=O)(=O)c4ccc(NCC5CN(CC#N)CCO5)c([N+](=O)[O-])c4)c(Oc4cnc5[nH]ccc5c4)c3)CC2)=C(c2ccc(Cl)cc2)C1` (stereo not drawn) [Compound 214, 4-(4-{[2-(4-chlorophenyl)-4,4-dimethylcyclohex-1-en-1-yl]methyl}piperazin-1-yl)-N-{[4-({[4-(cyanomethyl)morpholin-2-yl]methyl}amino)-3-nitrophenyl]sulfonyl}-2-(1H-pyrrolo[2,3-b]pyridin-5-yloxy)benzamide] the figure was < 0.01 nM; with `CN(C)CC(=O)N1CCOC(CNc2ccc(S(=O)(=O)NC(=O)c3ccc(N4CCN(CC5=C(c6ccc(Cl)cc6)CC(C)(C)CC5)CC4)cc3Oc3cnc4[nH]ccc4c3)cc2[N+](=O)[O-])C1` (stereo not drawn) [Compound 215, 4-(4-{[2-(4-chlorophenyl)-4,4-dimethylcyclohex-1-en-1-yl]methyl}piperazin-1-yl)-N-{[4-({[4-(N,N-dimethylglycyl)morpholin-2-yl]methyl}amino)-3-nitrophenyl]sulfonyl}-2-(1H-pyrrolo[2,3-b]pyridin-5-yloxy)benzamide], < 0.01 nM; with `CC1(C)CCC(CN2CCN(c3ccc(C(=O)NS(=O)(=O)c4ccc(NCC5CN(CC(=O)O)CCO5)c([N+](=O)[O-])c4)c(Oc4cnc5[nH]ccc5c4)c3)CC2)=C(c2ccc(Cl)cc2)C1` (stereo not drawn) [Compound 216, (2-{[(4-{[4-(4-{[2-(4-chlorophenyl)-4,4-dimethylcyclohex-1-en-1-yl]methyl}piperazin-1-yl)-2-(1H-pyrrolo[2,3-b]pyridin-5-yloxy)benzoyl]sulfamoyl}-2-nitrophenyl)amino]methyl}morpholin-4-yl)acetic acid], < 0.01 nM. Regarding `CC1(C)CCC(CN2CCN(c3ccc(C(=O)NS(=O)(=O)c4ccc(NCC5CN(C6COC6)CCO5)c([N+](=O)[O-])c4)c(Oc4cnc5[nH]ccc5c4)c3)CC2)=C(c2ccc(Cl)cc2)C1` (stereo not drawn) [Compound 217, 4-(4-{[2-(4-chlorophenyl)-4,4-dimethylcyclohex-1-en-1-yl]methyl}piperazin-1-yl)-N-{[3-nitro-4-({[4-(oxetan-3-yl)morpholin-2-yl]methyl}amino)phenyl]sulfonyl}-2-(1H-pyrrolo[2,3-b]pyridin-5-yloxy)benzamide], the Ki was < 0.01 nM. The value for `CC1(C)CCC(CN2CCN(c3ccc(C(=O)NS(=O)(=O)c4ccc(NC5CCN(C(C)(C)C)CC5)c([N+](=O)[O-])c4)c(Oc4cnc5[nH]ccc5c4)c3)CC2)=C(c2ccc(Cl)cc2)C1` [Compound 227, N-({4-[(1-tert-butylpiperidin-4-yl)amino]-3-nitrophenyl}sulfonyl)-4-(4-{[2-(4-chlorophenyl)-4,4-dimethylcyclohex-1-en-1-yl]methyl}piperazin-1-yl)-2-(1H-pyrrolo[2,3-b]pyridin-5-yloxy)benzamide] was < 0.01 nM; that for `CC1(C)CCC(CN2CCN(c3ccc(C(=O)NS(=O)(=O)c4ccc(N[C@@H]5CCOC5)c([N+](=O)[O-])c4)c(Oc4cnc5[nH]ccc5c4)c3)CC2)=C(c2ccc(Cl)cc2)C1` [Compound 238, 4-(4-{[2-(4-chlorophenyl)-4,4-dimethylcyclohex-1-en-1-yl]methyl}piperazin-1-yl)-N-({3-nitro-4-[(3R)-tetrahydrofuran-3-ylamino]phenyl}sulfonyl)-2-(1H-pyrrolo[2,3-b]pyridin-5-yloxy)benzamide] was < 0.01 nM; that for `CC1(C)CCC(CN2CCN(c3ccc(C(=O)NS(=O)(=O)c4ccc(NC5CCN(C(C)(C)C)CC5)c(S(=O)(=O)C(F)(F)F)c4)c(Oc4cnc5[nH]ccc5c4)c3)CC2)=C(c2ccc(Cl)cc2)C1` [Compound 240, N-({4-[(1-tert-butylpiperidin-4-yl)amino]-3-[(trifluoromethyl)sulfonyl]phenyl}sulfonyl)-4-(4-{[2-(4-chlorophenyl)-4,4-dimethylcyclohex-1-en-1-yl]methyl}piperazin-1-yl)-2-(1H-pyrrolo[2,3-b]pyridin-5-yloxy)benzamide] was < 0.01 nM.

For `CC1(C)CCC(CN2CCN(c3ccc(C(=O)NS(=O)(=O)c4ccc(NCC5CN(C6COC6)CCO5)c(S(=O)(=O)C(F)(F)F)c4)c(Oc4cnc5[nH]ccc5c4)c3)CC2)=C(c2ccc(Cl)cc2)C1` (stereo not drawn) [Compound 241, 4-(4-{[2-(4-chlorophenyl)-4,4-dimethylcyclohex-1-en-1-yl]methyl}piperazin-1-yl)-N-({4-({[4-(oxetan-3-yl)morpholin-2-yl]methyl}amino)-3-[(trifluoromethyl)sulfonyl]phenyl}sulfonyl)-2-(1H-pyrrolo[2,3-b]pyridin-5-yloxy)benzamide], the Ki is < 0.01 nM. With `CC1(C)CCC(CN2CCN(c3ccc(C(=O)NS(=O)(=O)c4ccc(NCC5CN(C(CF)CF)CCO5)c([N+](=O)[O-])c4)c(Oc4cnc5[nH]ccc5c4)c3)CC2)=C(c2ccc(Cl)cc2)C1` (stereo not drawn) [Compound 252, 4-(4-{[2-(4-chlorophenyl)-4,4-dimethylcyclohex-1-en-1-yl]methyl}piperazin-1-yl)-N-{[4-({[4-(1,3-difluoropropan-2-yl)morpholin-2-yl]methyl}amino)-3-nitrophenyl]sulfonyl}-2-(1H-pyrrolo[2,3-b]pyridin-5-yloxy)benzamide] the figure was < 0.01 nM.
